Values of other authors as cited in EP1844783A1 (priority 2006, dated 2007).

Tested on: EAE
Conditions: Craner et al., 2005

In the case of `O=C1NC(=O)C(c2ccccc2)(c2ccccc2)N1` [phenytoin], the “ameliorates the inflammatory cell infiltrate in EAE” value is given as 75%.
